Source: US8273542B2 (priority 2005, dated 2012)
Where two headings read alike, the source gives them in different places.

Experiments:
hT2R75 = molecular target: T1, hT2R75 (Homo sapiens, UniProt P59540); type: cell-based
T1 construct: expressed in transfected cells; host or cells: HEK293 cells stably expressing large T antigen and G16gust44, transiently transfected
T1 sequence (P59540 1-309): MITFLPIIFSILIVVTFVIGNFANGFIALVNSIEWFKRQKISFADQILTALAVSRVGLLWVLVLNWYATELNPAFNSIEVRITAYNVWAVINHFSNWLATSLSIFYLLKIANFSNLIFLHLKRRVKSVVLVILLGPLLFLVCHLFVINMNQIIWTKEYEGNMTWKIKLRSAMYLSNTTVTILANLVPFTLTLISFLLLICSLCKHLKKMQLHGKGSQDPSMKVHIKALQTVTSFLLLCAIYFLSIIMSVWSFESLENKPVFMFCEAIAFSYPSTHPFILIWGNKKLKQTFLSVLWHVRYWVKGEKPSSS
Protocol: (§1) More particularly, the present inventors transfected HEK293 cells with a particular hT2R together with a chimeric G protein (G16 gust 44) which comprises the […] G protein sequence modified by the replacement of carboxy-44 amino acid residues with those of gustducin, and recorded responses of these cells to specific bitter ligands by calcium imaging methods.
(§2) Activation of these receptors by ranitidine is measured in a cell-based assay detecting changes in intracellular calcium concentration. In brief, human embryonic kidney cells stably expressing the large […] and a chimeric G protein (G16gust44) are transiently transfected with the a plasmid containing a particular hT2R54 nucleic acid sequence either by Ca^2+ phosphate or lipid-based systems. Transiently transfected cells are seeded into 24 well culture plates, and functional expression allowed to proceed for a total of 48 hours. The cells are then incubated with a fluorescent dye specific for calcium (Fluo-4 or Fura-2; Molecular Probes) that provides a fast, simple and reliable fluorescence-based method for detecting changes in calcium concentration inside the cell. Addition of ranitidine to cells elicits a signaling cascade leading to the activation of PLC and a subsequent increase in intracellular calcium concentration. This increase in calcium concentration changes the fluorescence properties of the calcium dye inside the cells. These changes are monitored using fluorescence microscopy and a specific design software (Imaging Workbench, Axon).
(§3) Activation of these receptors by denatonium benzoate is measured in a cell-based assay detecting changes in intracellular calcium concentration. […] The cells are then incubated with a fluorescent dye specific for calcium (Fluo-4 or Fura-2; Molecular Probes) that provides a fast, simple and reliable fluorescence-based method for detecting changes in calcium concentration inside the cell. […] This increase in calcium concentration changes the fluorescence properties of the calcium dye inside the cells. These changes are monitored using fluorescence microscopy and specific design software (Imaging Workbench, Axon).
as §3, with “receptors by strychnine is measured” for “receptors by denatonium benzoate is measured”, “microscopy and a specific design” for “microscopy and specific design”

hT2R8 [1] = molecular target: T2, hT2R8 (Homo sapiens, UniProt Q9NYW2); type: cell-based
T2 construct: expressed in transfected cells; host or cells: HEK293 cells stably expressing large T antigen and chimeric G protein G16gust44; Transfection was transient for imaging
T2 sequence (Q9NYW2 1-309): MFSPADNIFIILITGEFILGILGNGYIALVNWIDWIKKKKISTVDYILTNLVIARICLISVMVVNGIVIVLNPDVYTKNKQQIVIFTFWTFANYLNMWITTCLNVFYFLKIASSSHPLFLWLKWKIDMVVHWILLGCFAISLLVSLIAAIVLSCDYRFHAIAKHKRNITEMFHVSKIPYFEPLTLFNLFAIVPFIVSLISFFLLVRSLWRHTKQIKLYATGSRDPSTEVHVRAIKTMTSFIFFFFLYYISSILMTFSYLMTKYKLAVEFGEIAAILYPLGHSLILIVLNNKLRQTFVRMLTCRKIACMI
Protocol: as §1, §2, §3
as §3, with “receptors by strychnine is measured” for “receptors by denatonium benzoate is measured”, “microscopy and a specific design” for “microscopy and specific design”

hT2R10 = molecular target: T3, hT2R10 (Homo sapiens, UniProt Q9NYW0); type: cell-based; settings: concentration not given
T3 construct: expressed in transfected cells; host or cells: HEK293 cells stably expressing large T antigen and G16gust44, transiently transfected
T3 sequence (Q9NYW0 1-307): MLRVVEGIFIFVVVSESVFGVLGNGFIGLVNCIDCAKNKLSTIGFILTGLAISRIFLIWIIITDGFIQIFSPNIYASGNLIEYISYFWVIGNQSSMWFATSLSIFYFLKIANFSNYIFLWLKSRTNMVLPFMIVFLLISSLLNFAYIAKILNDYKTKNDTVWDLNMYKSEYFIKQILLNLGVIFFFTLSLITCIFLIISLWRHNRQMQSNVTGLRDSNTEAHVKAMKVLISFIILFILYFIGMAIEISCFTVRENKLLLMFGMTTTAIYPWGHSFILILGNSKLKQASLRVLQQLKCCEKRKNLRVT
Protocol: as §1, §3
Activation of these receptors by strychnine is measured in a cell-based assay detecting changes in intracellular calcium concentration. […] The cells are then incubated with a fluorescent dye specific for calcium (Fluo-4 or Fura-2; Molecular Probes) that provides a fast, simple and reliable fluorescence-based method for detecting changes in calcium concentration inside the cell. […]

hT2R54 [2] = molecular target: T4, hT2R54 (Homo sapiens, UniProt P59534); type: cell-based
T4 construct: expressed in transfected cells; host or cells: HEK293 cells stably expressing large T antigen and G16gust44; Transfection was transient for imaging
T4 sequence (P59534 18-338): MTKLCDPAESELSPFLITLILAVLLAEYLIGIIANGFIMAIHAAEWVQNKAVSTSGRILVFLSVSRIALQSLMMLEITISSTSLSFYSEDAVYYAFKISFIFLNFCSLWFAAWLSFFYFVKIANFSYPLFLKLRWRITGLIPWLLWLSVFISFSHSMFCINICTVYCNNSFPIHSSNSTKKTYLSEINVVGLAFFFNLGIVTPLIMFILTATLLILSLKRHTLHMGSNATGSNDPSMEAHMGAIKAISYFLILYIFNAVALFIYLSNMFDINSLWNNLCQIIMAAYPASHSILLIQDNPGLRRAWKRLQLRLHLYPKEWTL
Protocol: as §1, §2
Transiently transfected cells are seeded into 24 well culture plates, and functional expression allowed to proceed for a total of 48 hours. The cells are then incubated with a fluorescent dye specific for calcium (Fluo-4 or Fura-2; Molecular Probes) that provides a fast, simple and reliable fluorescence-based method for detecting changes in calcium concentration inside the cell. […] This increase in calcium concentration changes the fluorescence properties of the calcium dye inside the cells. These changes are monitored using fluorescence microscopy and specific design software (Imaging Workbench, Axon).
as §3

hT2R13 = molecular target: T5, hT2R13 (Homo sapiens, UniProt Q9NYV9); type: cell-based; settings: concentration not given
T5 construct: expressed in transfected cells; host or cells: HEK293 cells stably expressing large T antigen and G16gust44, transiently transfected
T5 sequence (Q9NYV9 1-303): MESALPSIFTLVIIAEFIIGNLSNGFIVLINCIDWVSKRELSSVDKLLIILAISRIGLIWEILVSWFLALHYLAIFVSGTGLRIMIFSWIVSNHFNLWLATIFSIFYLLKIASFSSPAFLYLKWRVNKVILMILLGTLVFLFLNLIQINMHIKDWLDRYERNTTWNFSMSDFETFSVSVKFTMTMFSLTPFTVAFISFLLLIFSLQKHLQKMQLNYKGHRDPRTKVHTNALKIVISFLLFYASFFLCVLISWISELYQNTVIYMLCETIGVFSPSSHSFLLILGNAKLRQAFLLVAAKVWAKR
Protocol: as §1
as §2, with “receptors by denatonium benzoate is measured” for “receptors by ranitidine is measured”, “a particular hT2R nucleic acid” for “a particular hT2R54 nucleic acid”, “the cell. […] This increase” for “the cell. Addition of ranitidine to cells elicits a signaling cascade leading to the activation of PLC and a subsequent increase in intracellular calcium concentration. This increase”, “microscopy and specific design” for “microscopy and a specific design”

hT2R61 = molecular target: T6, hT2R61 (Homo sapiens, UniProt P59537, H212R/W35S); type: cell-based; settings: concentration not given
T6 construct: expressed in transfected cells; host or cells: HEK293 cells stably expressing large T antigen and G16gust44, transiently transfected
T6 sequence (P59537 1-309 W35S/H212R): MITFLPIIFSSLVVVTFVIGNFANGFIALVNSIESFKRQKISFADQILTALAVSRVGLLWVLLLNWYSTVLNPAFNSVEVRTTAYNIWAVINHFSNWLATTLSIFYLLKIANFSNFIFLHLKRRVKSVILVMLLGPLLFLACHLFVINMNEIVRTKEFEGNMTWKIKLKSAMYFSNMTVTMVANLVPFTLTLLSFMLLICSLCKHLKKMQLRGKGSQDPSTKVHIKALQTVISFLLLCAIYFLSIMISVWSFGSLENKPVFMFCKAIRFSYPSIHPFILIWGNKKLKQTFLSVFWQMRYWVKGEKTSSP
Protocol: as §1
as §2, with “receptors by denatonium benzoate is measured” for “receptors by ranitidine is measured”, “a particular hT2R nucleic acid” for “a particular hT2R54 nucleic acid”, “the cell. […] This increase” for “the cell. Addition of ranitidine to cells elicits a signaling cascade leading to the activation of PLC and a subsequent increase in intracellular calcium concentration. This increase”, “microscopy and specific design” for “microscopy and a specific design”

hT2R8 [3] = molecular target: T2, hT2R8; assay: dose response, stable HEK-G16gust44 line, calcium dye, FLIPR or VIPR; type: cell-based
Protocol: (§4) A HEK-G16gust44 line stably expressing high levels of hT2R8 or hT2R54 on its cell surface is used in high throughput screening assays. In this platform, the cells are seeded into 96 well or 384 well culture plates 18-24 hours before the assay. The cells are then incubated with the fluorescent calcium sensitive dye (Molecular Devices) and are stimulated and read in a standard fluorescence intensity plate reader (FLIPR or VIPR). Using this approach we have been able to further characterize the ranitidine effect on hT2R8 and hT2R54.
A HEK-G16gust44 line stably expressing high levels of hT2R8 […] cell surface is used in high throughput screening assays. In this platform, the cells are seeded into 96 well or 384 well culture plates 18-24 hours before the assay. The cells are then incubated with the fluorescent calcium sensitive dye (Molecular Devices) and are stimulated and read in a standard fluorescence intensity plate reader (FLIPR or VIPR).

hT2R54 [4] = molecular target: T4, hT2R54; assay: as above; type: cell-based; settings: for dose response of hT2R54: stable HEK-G16gust44 line
Protocol: as §4
A HEK-G16gust44 cell line stably expressing high levels of hT2R54 on its cell surface is used in high throughput screening assays. In this platform, the cells are seeded into 96 well or 384 well culture plates 18-24 hours before the assay. The cells are then incubated with the fluorescent calcium sensitive dye (Molecular Devices) and are stimulated and read in a standard fluorescence intensity plate reader (FLIPR or VIPR). Using this approach we have been able to further characterize the acetaminophen effect on hT2R54.

[5] = taste detection threshold; type: in vivo, humans
hT2R4 = molecular target: T7, hT2R4 (Homo sapiens, UniProt Q9NYW5); settings: Chandrashekar et al. 2000; cited from earlier work
T7 sequence (Q9NYW5 1-299): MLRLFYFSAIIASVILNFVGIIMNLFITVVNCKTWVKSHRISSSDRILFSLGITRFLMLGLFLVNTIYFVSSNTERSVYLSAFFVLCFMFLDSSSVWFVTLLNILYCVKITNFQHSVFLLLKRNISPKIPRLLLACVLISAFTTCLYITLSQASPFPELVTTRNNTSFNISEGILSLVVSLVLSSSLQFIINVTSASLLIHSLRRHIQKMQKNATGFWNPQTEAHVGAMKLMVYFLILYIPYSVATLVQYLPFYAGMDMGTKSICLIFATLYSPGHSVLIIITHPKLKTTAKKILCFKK

mT2R5 = molecular target: T8, mT2R5 (Mus musculus, UniProt Q9JKT4); settings: Chandrashekar et al. 2000; cited from earlier work
T8 construct: host or cells: insect Sf9 cells
T8 sequence (Q9JKT4 1-300): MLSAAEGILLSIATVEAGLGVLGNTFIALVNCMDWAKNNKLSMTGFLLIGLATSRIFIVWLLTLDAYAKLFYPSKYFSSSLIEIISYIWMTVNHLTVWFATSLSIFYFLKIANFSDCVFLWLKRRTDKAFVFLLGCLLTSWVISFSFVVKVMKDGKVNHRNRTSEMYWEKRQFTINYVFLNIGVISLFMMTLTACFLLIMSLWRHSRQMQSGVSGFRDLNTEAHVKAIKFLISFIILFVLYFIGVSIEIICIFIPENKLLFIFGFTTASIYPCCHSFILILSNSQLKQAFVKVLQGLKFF

CC[N+](CC)(CC(=O)Nc1c(C)cccc1C)Cc1ccccc1 [denatonium benzoate]
response of hT2R75 in calcium imaging (hT2R75; concentration not given): respond specifically
response of hT2R8 in calcium imaging (hT2R8 [1]; concentration not given): respond specifically
response of hT2R10 in calcium imaging (hT2R10): respond specifically
response of hT2R54 in calcium imaging (hT2R54 [2]; concentration not given): respond specifically
response of hT2R13 in calcium imaging (hT2R13): respond specifically
response of hT2R61 in calcium imaging (hT2R61): respond specifically
EC50 (hT2R8 [3]; dose response, FIG. 6): 450 µM
dose response of hT2R8 (hT2R8 [3]; stable HEK-G16gust44 line): typical dose-response relationship
EC50 (hT2R54 [4]; dose response, FIG. 4, read-out: EC50, hT2R54): 380 nM
dose response of hT2R54 (hT2R54 [4]): typical dose-response relationship
taste detection threshold ([5]; in vivo): 24 mM
effective denatonium concentrations activating hT2R4 (hT2R4): 1.5 mM

OCc1ccccc1O[C@@H]1O[C@H](CO)[C@@H](O)[C@H](O)[C@H]1O [salicin]
response of hT2R54 in calcium imaging (hT2R54 [2]; 10 μM): does not respond

C[C@@H]1C[C@@H]([C@H](O)CC2CC(=O)NC(=O)C2)C(=O)[C@@H](C)C1 [cycloheximide]
gustducin activation by mT2R5 (mT2R5): occurs only in response to cycloheximide

CNC(=C[N+](=O)[O-])NCCSCc1ccc(CN(C)C)o1 [ranitidine]
taste detection threshold / bitter taste threshold for humans [5]: 78 µM

OC[C@H]1O[C@@](CO)(O[C@H]2O[C@H](CO)[C@@H](O)[C@H](O)[C@H]2O)[C@@H](O)[C@@H]1O [sucrose]
response of hT2R75 in calcium imaging (hT2R75; 10 μM): did not respond
response of hT2R8 in calcium imaging (hT2R8 [1]; 10 μM): did not respond
response of hT2R54 in calcium imaging (hT2R54 [2]; 10 μM): did not respond

CC(=O)Nc1ccc(O)cc1 [acetaminophen]
response of hT2R54 in calcium imaging (hT2R54 [2]; 10 μM): responded specifically
EC50 (hT2R54 [4]): 1830 nM
dose response of hT2R54 (hT2R54 [4]): typical dose-response relationship
taste detection threshold / bitter taste threshold for humans [5]: 1.25 µM
